Laboratory results taken from patent US9580432B2, “Fused pyrimidine compound or salt thereof” (TAIHO PHARMACEUTICAL CO., LTD., priority 2013, dated 2017).

What was measured:
[1] = tested on: purified recombinant human EGFR protein / BTK; test: BTK inhibition selectivity compared with EGFR kinase inhibitory activity (in vitro); format: biochemical; conditions: EGFR assay ATP 1.5 μM
[2] = biological target: purified recombinant human BTK protein (Homo sapiens (Human), UniProt Q06187); test: Measurement of BTK inhibitory activity (in vitro); format: biochemical; conditions: FL-PEPTIDE 2 substrate 1 μM, ATP 45 μM, 40 minutes at 25° C.
In short: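 Recombinant human BTK with FL-PEPTIDE 2 substrate (1 μM), 45 μM ATP and 10 mM MgCl2 in 20 mM HEPES pH 7.5, 2 mM DTT, 0.01% Triton X-100, 5% DMSO; 40 min at 25° C. Reaction stopped with 30 mM EDTA. Phosphorylated and unphosphorylated peptide separated and detected by microchannel capillary electrophoresis.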

A431 cells / TMD8 cells = test: Proliferation inhibitory activity against cell lines expressing BTK and EGFR (in vitro), comparison of selectivity; format: cell-based, human; conditions: ratio from GI50 (nM), 3 days culture, CELLTITER GLO
In short: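 BTK-expressing TMD8 DLBCL cells (RPMI1640/10% FBS) and EGFR-overexpressing A431 epidermoid carcinoma cells (DMEM/10% FBS) cultured 1 day, then exposed to compound (0.2% DMSO final) for 3 days at 37° C. Luminescence read-out; inhibition ratio % = (C−T)/(C−C0)×100, with A431/TMD8 ratio as selectivity index.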

[3] = Influence on body weight of SD rat by repeated administration (in vivo); conditions: 280 mg/kg orally once a day, two weeks
Experimental: The rats were grouped as follows, with four animals in each group, by a random classification method such that the average body weights of the each groups would be almost uniform (Day 1).
The body weight change (BWC) was used as an index indicating the systemic toxicity caused by drug administration. The BWC was calculated by the following formula. BWC (%)=([(Rat body weight on 14 days after the administration)−(rat body weight at the time of grouping)]/(rat body weight at the time of grouping))×100
The relative body weight change ratios in the each compound-administered groups were calculated by the following formula when the BWC in the vehicle-administered group was set as 1, and the results are indicated in Table 52. Relative body weight change ratio (%)=(BWC in the compound-administered group)/(BWC in the vehicle-administered group)×100

Sequence of purified recombinant human BTK protein (Q06187 whole entry): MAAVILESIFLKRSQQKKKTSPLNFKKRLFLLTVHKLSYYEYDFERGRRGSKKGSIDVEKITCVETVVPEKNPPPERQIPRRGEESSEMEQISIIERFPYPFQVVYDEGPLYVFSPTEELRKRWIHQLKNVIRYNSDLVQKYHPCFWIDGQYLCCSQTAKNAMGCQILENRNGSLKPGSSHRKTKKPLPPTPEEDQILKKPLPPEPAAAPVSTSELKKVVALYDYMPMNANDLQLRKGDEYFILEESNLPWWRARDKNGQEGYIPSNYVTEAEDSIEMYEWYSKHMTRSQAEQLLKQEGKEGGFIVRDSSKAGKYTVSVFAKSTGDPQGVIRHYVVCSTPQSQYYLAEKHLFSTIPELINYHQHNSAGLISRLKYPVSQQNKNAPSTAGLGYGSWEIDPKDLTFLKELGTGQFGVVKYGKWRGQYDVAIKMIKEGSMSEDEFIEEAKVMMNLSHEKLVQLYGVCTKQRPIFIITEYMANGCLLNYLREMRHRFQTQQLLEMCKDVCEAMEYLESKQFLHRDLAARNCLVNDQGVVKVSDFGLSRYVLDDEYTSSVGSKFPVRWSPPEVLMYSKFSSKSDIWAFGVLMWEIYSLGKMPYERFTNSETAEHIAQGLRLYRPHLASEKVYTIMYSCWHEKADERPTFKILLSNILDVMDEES

SMILES	EGFR inhibitory activity IC50 value (nM)/BTK inhibitory activity IC50 value (nM) [1]	IC50 [2]	A431 cell proliferation inhibition ratio/TMD8 cell proliferation inhibitio ratio (A431 cells / TMD8 cells)	individuals suffering from loose bowel [3]	width of rat body weight increase compared with the vehicle-administered group [3]
C=CC(=O)N1CC(Cn2nc(C(=O)Nc3nc4ccccc4o3)c3c(N)ncnc32)C1 [Example 70, 1-((1-acryloylazetidin-3-yl)methyl)-4-amino-N-(benzo[d]oxazol-2-yl)-1H-pyrazolo[3,4-d]pyrimidine-3-carboxamide]	12.2	3.17 nM	>8369.4		
CN(C)C/C=C/C(=O)N1CC[C@@H](n2nc(C(=O)Nc3nc4cc(C(F)(F)F)ccc4o3)c3c(N)ncnc32)C1 [Example 44, (R,E)-4-amino-N-(5-(trifluoromethyl)benzo[d]oxazol-2-yl)-1-(1-(4-(dimethylamino)but-2-enoyl)pyrrolidin-3-yl)-1H-pyrazolo[3,4-d]pyrimidine-3-carboxamide]	17.1	0.877 nM	10905.1		
C=CC(=O)N1CCC[C@@H](n2nc(-c3ccc(Oc4ccccc4)cc3)c3c(N)ncnc32)C1 [Comparative Example Compound 1, (R)-1-(3-(4-amino-3-(4-phenoxyphenyl)-1H-pyrazolo[3,4-d]pyrimidin-1-yl)piperidin-1-yl)prop-2-en-1-one, reference compound]				individuals suffering from loose bowel were recognized	very small
CC(C)N(C)C/C=C/C(=O)N1CC[C@@H](n2cc(C(=O)Nc3nc4cc(Cl)ccc4o3)c3c(N)ncnc32)C1 [Example 52, (R,E)-4-amino-N-(5-chlorobenzo[d]oxazol-2-yl)-7-(1-(4-(isopropyl(methyl)amino)but-2-enoyl)pyrrolidin-3-yl) 7H-pyrrolo[2,3-d]pyrimidine-5-carboxamide]	20.6	1.2 nM	>3617.9		
C=CC(=O)N1CCCC(Cn2nc(C(=O)Nc3nc4ccccc4o3)c3c(N)ncnc32)C1 (centres unmarked) [Example 67, 1-((1-acryloylpiperidin-3-yl)methyl)-4-amino-N-(benzo[d]oxazol-2-yl)-1H-pyrazolo[3,4-d]pyrimidine-3-carboxamide]	18.0	14 nM	>2168.7		
Nc1ncnc2c1c(C(=O)Nc1nc3cc(Cl)ccc3o1)nn2[C@@H]1CCCN(C(=O)/C=C/CN2CCCCC2)C1 [Example 20, (R,E)-4-amino-N-(5-chlorobenzo[d]oxazol-2-yl)-1-(1-(4-(piperidin-1-yl)but-2-enoyl)piperidin-3-yl)-1H-pyrazolo[3,4-d]pyrimidine-3-carboxamide]	138.2	0.801 nM	>19120.5		
CCN(C)C/C=C/C(=O)N1CC[C@@H](n2cc(C(=O)Nc3nc4cc(Cl)ccc4o3)c3c(N)ncnc32)C1 [Example 50, (R,E)-4-amino-N-(5-chlorobenzo[d]oxazol-2-yl)-7-(1-(4-(ethyl(methyl)amino)but-2-enoyl)pyrrolidin-3-yl) 7H-pyrrolo[2,3-d]pyrimidine-5-carboxamide]	22.1	1.41 nM	>2767.8		

Continued, in another order:

EGFR inhibitory activity IC50 value (nM)/BTK inhibitory activity IC50 value (nM) [1]	IC50 [2]	SMILES	A431 cell proliferation inhibition ratio/TMD8 cell proliferation inhibitio ratio (A431 cells / TMD8 cells)	individuals suffering from loose bowel [3]	width of rat body weight increase compared with the vehicle-administered group [3]
144.8	0.69 nM	Nc1ncnc2c1c(C(=O)Nc1nc3cc(Cl)ccc3o1)nn2[C@@H]1CCCN(C(=O)/C=C/CN2CCCC2)C1 [Example 19, (R,E)-4-amino-N-(5-chlorobenzo[d]oxazol-2-yl)-1-(1-(4-(pyrrolidin-1-yl)but-2-enoyl)piperidin-3-yl)-1H-pyrazolo[3,4-d]pyrimidine-3-carboxamide]	>17825.3		
21.3	0.566 nM	C=CC(=O)N1CC[C@@H](n2nc(C(=O)Nc3nc4cc(F)ccc4o3)c3c(N)ncnc32)C1 [Example 30, (R)-1-(1-acryloylpyrrolidin-3-yl)-4-amino-N-(5-fluorobenzo[d]oxazol-2-yl)-1H-pyrazolo[3,4-d]pyrimidine-3-carboxamide]	5164.3		
158.1	0.733 nM	CCN(C)C/C=C/C(=O)N1CCC[C@@H](n2nc(C(=O)Nc3nc4cc(Cl)ccc4o3)c3c(N)ncnc32)C1 [Example 16, (R,E)-4-amino-N-(5-chlorobenzo[d]oxazol-2-yl)-1-(1-(4-(ethyl(methyl)amino)but-2-enoyl)piperidin-3-yl)-1H-pyrazolo[3,4-d]pyrimidine-3-carboxamide]	>16313.2		
145.0	0.786 nM	CN(C)C/C=C/C(=O)N1CCC[C@@H](n2nc(C(=O)Nc3nc4cc(Cl)ccc4o3)c3c(N)ncnc32)C1 [Example 15, (R,E)-4-amino-N-(5-chlorobenzo[d]oxazol-2-yl)-1-(1-(4-(dimethylamino)but-2-enoyl)piperidin-3-yl)-1H-pyrazolo[3,4-d]pyrimidine-3-carboxamide]	16442.0		
173.7	1.17 nM	C/C=C/C(=O)N1CC[C@@H](n2nc(C(=O)Nc3nc4cc(Cl)ccc4o3)c3c(N)ncnc32)C1 [Example 25, (R,E)-4-amino-N-(5-chlorobenzo[d]oxazol-2-yl)-1-(1-(but-2-enoyl)pyrrolidin-3-yl)-1H-pyrazolo[3,4-d]pyrimidine-3-carboxamide]	2793.0		
79.3	0.79 nM	CCN(CC)C/C=C/C(=O)N1CC[C@@H](n2nc(C(=O)Nc3nc4cc(Cl)ccc4o3)c3c(N)ncnc32)C1 [Example 34, (R,E)-4-amino-N-(5-chlorobenzo[d]oxazol-2-yl)-1-(1-(4-(diethylamino)but-2-enoyl)pyrrolidin-3-yl)-1H-pyrazolo[3,4-d]pyrimidine-3-carboxamide]	>22471.9		
43.1	0.634 nM	CN(C)C/C=C/C(=O)N1CC[C@@H](n2nc(C(=O)Nc3nc4cc(Cl)ccc4o3)c3c(N)ncnc32)C1 [Example 32, (R,E)-4-amino-N-(5-chlorobenzo[d]oxazol-2-yl)-1-(1-(4-(dimethylamino)but-2-enoyl)pyrrolidin-3-yl)-1H-pyrazolo[3,4-d]pyrimidine-3-carboxamide]	>11123.5		
